Test results from ChEMBL document CHEMBL1201862, “PubChem BioAssay data set” (2004).
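Growth conditions: 96-well plates. Treatment: test compound, 48 hours, 5 concentrations. Analysis: linear interpolation between bracketing concentrations; unreached endpoints set to highest concentration. At the GI50, growth is halved.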 Active and inactive are the calls of the source. Rule as the data show it: active = GI50 up to about 1.1 µM and inactive = higher.

Columns and labels:
Assay in all cases: growth of human tumour cells (NCI), 48 h
786-0 = system: 786-0
A549 = system: A549
ACHN = system: ACHN
CCRF-CEM = system: CCRF-CEM
COLO 205 = system: COLO 205
EKVX = system: EKVX
HCC 2998 = system: HCC 2998
HCT-116 = system: HCT-116
HCT-15 = system: HCT-15
HL-60 = system: HL-60
HOP-62 = system: HOP-62
HT-29 = system: HT-29
Hs-578T = system: Hs-578T
IGROV-1 = system: IGROV-1
K562 = system: K562
KM12 = system: KM12
M14 = system: M14
MCF7 = system: MCF7
MDA-MB-231 = system: MDA-MB-231
MDA-MB-435 = system: MDA-MB-435
MDA-N = system: MDA-N
MOLT-4 = system: MOLT-4
NCI-H460 = system: NCI-H460
NCI-H522 = system: NCI-H522
NCI/ADR-RES = system: NCI/ADR-RES
OVCAR-4 = system: OVCAR-4
OVCAR-5 = system: OVCAR-5
OVCAR-8 = system: OVCAR-8
PC-3 = system: PC-3
RPMI-8226 = system: RPMI-8226
SF-268 = system: SF-268
SF-295 = system: SF-295
SF-539 = system: SF-539
SK-MEL-28 = system: SK-MEL-28
SK-MEL-5 = system: SK-MEL-5
SK-OV-3 = system: SK-OV-3
SN12C = system: SN12C
SNB-19 = system: SNB-19
SNB-75 = system: SNB-75
SR = system: SR
SW-620 = system: SW-620
T47D = system: T47D
TK-10 = system: TK-10
U-251 = system: U-251
UACC-257 = system: UACC-257
UO-31 = system: UO-31
A498 = system: A498
CAKI-1 = system: CAKI-1
DU-145 = system: DU-145
LOX IMVI = system: LOX IMVI
Malme-3M = system: Malme-3M
NCI-H226 = system: NCI-H226
NCI-H23 = system: NCI-H23
SK-MEL-2 = system: SK-MEL-2
UACC-62 = system: UACC-62

C[n+]1c(-c2ccc(/C=N/NC(=O)C(=O)N/N=C/c3ccc(-c4cn5ccsc5[n+]4C)cc3)cc2)cn2ccsc21
GI50 (786-0): > 100 µM (inactive)
GI50 (A549): > 100 µM (inactive)
GI50 (ACHN): > 100 µM (inactive)
GI50 (CCRF-CEM): > 100 µM (inactive)
GI50 (COLO 205): > 100 µM (inactive)
GI50 (EKVX): > 100 µM (inactive)
GI50 (HCC 2998): > 100 µM (inactive)
GI50 (HCT-116): 92.5 µM (inactive)
GI50 (HCT-15): > 100 µM
GI50 (HL-60): > 100 µM (inactive)
GI50 (HOP-62): > 100 µM (inactive)
GI50 (HT-29): > 100 µM (inactive)
GI50 (Hs-578T): > 100 µM (inactive)
GI50 (IGROV-1): > 100 µM (inactive)
GI50 (K562): > 100 µM (inactive)
GI50 (KM12): > 100 µM (inactive)
GI50 (M14): > 100 µM (inactive)
GI50 (MCF7): > 100 µM (inactive)
GI50 (MDA-MB-231): > 100 µM (inactive)
GI50 (MDA-MB-435): 48.2 µM (inactive)
GI50 (MDA-N): 47.8 µM (inactive)
GI50 (MOLT-4): > 100 µM (inactive)
GI50 (NCI-H460): > 100 µM (inactive)
GI50 (NCI-H522): > 100 µM (inactive)
GI50 (NCI/ADR-RES): > 100 µM (inactive)
GI50 (OVCAR-4): > 100 µM (inactive)
GI50 (OVCAR-5): > 100 µM (inactive)
GI50 (OVCAR-8): > 100 µM (inactive)
GI50 (PC-3): > 100 µM (inactive)
GI50 (RPMI-8226): 82.6 µM (inactive)
GI50 (SF-268): > 100 µM (inactive)
GI50 (SF-295): 53.5 µM (inactive)
GI50 (SF-539): > 100 µM (inactive)
GI50 (SK-MEL-28): 87.3 µM (inactive)
GI50 (SK-MEL-5): > 100 µM (inactive)
GI50 (SK-OV-3): > 100 µM (inactive)
GI50 (SN12C): > 100 µM (inactive)
GI50 (SNB-19): > 100 µM (inactive)
GI50 (SNB-75): > 100 µM (inactive)
GI50 (SR): > 100 µM (inactive)
GI50 (SW-620): > 100 µM (inactive)
GI50 (T47D): > 100 µM (inactive)
GI50 (TK-10): > 100 µM (inactive)
GI50 (U-251): > 100 µM (inactive)
GI50 (UACC-257): > 100 µM (inactive)
GI50 (UO-31): > 100 µM (inactive)

O=C(/C=C/c1cccs1)c1ccsc1
GI50 (786-0): 28.8 µM (inactive)
GI50 (A498): 38.7 µM (inactive)
GI50 (A549): 38 µM (inactive)
GI50 (ACHN): 20.2 µM (inactive)
GI50 (CAKI-1): 56.5 µM (inactive)
GI50 (CCRF-CEM): 16.5 µM (inactive)
GI50 (COLO 205): 18.1 µM (inactive)
GI50 (DU-145): 50.2 µM (inactive)
GI50 (EKVX): 31.1 µM (inactive)
GI50 (HCC 2998): 17.4 µM (inactive)
GI50 (HCT-15): 16.8 µM
GI50 (HL-60): 15.5 µM (inactive)
GI50 (HOP-62): 73.5 µM (inactive)
GI50 (HT-29): 19.3 µM (inactive)
GI50 (IGROV-1): 25.1 µM (inactive)
GI50 (K562): 17.5 µM (inactive)
GI50 (KM12): > 10 µM (inactive)
GI50 (LOX IMVI): 17.2 µM (inactive)
GI50 (M14): 39.2 µM (inactive)
GI50 (MCF7): 10.4 µM (inactive)
GI50 (MDA-MB-231): > 10 µM (inactive)
GI50 (MDA-MB-435): 21.8 µM (inactive)
GI50 (MDA-N): 18.9 µM (inactive)
GI50 (MOLT-4): 16.9 µM (inactive)
GI50 (Malme-3M): 22.2 µM (inactive)
GI50 (NCI-H226): 21.1 µM (inactive)
GI50 (NCI-H23): 18.1 µM (inactive)
GI50 (NCI-H460): 24.5 µM (inactive)
GI50 (NCI/ADR-RES): 35.2 µM (inactive)
GI50 (OVCAR-4): 51.1 µM (inactive)
GI50 (OVCAR-5): 26.9 µM (inactive)
GI50 (OVCAR-8): 27.6 µM (inactive)
GI50 (PC-3): 22.4 µM (inactive)
GI50 (RPMI-8226): 15.9 µM (inactive)
GI50 (SF-268): 45.1 µM (inactive)
GI50 (SF-295): 32.4 µM (inactive)
GI50 (SK-MEL-28): 32.7 µM (inactive)
GI50 (SK-MEL-2): 36.2 µM (inactive)
GI50 (SK-MEL-5): 18.9 µM (inactive)
GI50 (SK-OV-3): 33.4 µM (inactive)
GI50 (SN12C): 19.8 µM (inactive)
GI50 (SNB-19): 18.9 µM (inactive)
GI50 (SNB-75): 27.8 µM (inactive)
GI50 (SR): 16.6 µM (inactive)
GI50 (SW-620): 29 µM (inactive)
GI50 (T47D): 26.3 µM (inactive)
GI50 (TK-10): 22.7 µM (inactive)
GI50 (U-251): > 10 µM (inactive)
GI50 (UACC-257): 23 µM (inactive)
GI50 (UACC-62): 16.5 µM (inactive)
GI50 (UO-31): 17.6 µM (inactive)
